The values that follow are results of earlier work, collected in PubChem BioAssay AID1259409 (Chemical Carcinogenesis Research Information System (CCRIS), 2018).

The test system of the data set is rodent chemically induced tumor inhibition, incidence and multiplicity. In words: CCRIS tumor inhibitor studies. The settings on record: Route [Inhibitor]: ORAL, Promoter: NONE USED. An excerpt:
The CCRIS database contains chemical records with carcinogenicity, mutagenicity, tumor promotion, and tumor inhibition test results. It was developed by the National Cancer Institute (NCI). Data are derived from studies cited in primary journals, current awareness tools, NCI reports, and other sources. Test results have been reviewed by experts in carcinogenesis and mutagenesis.
CCRIS provides historical information from the years 1985 - 2011. It is no longer updated.
This is an archive assay for CCRIS tumor inhibitor studies.

Consider `CCNC(=O)/C=C(C)/C=C/C=C(C)/C=C/C1=C(C)CCCC1(C)C`, for which the “tumour outcome (control, treated, inhibition, significance)” value runs as follows: (Carcinogen: N-METHYL-N-NITROSOUREA, 684-93-5, Dose [Inhibitor]: 2 MMOL/KG DIET DAILY STARTING 12 D AFTER CARCINOGEN TREATMENT THROUGH ABOUT 8 MO AFTER CARCINOGEN DOSE (STUDY DURATION:, Species: RAT, Strain/Sex: F344/MALE, Target Tissue: Type of Lesion: COLON: ADENOMA, Dose [Carcinogen]: 2.5 MG 1/WK FOR 2 WK) 16/39 (41%), 10/30 (33%), 20%, not significant; (Carcinogen: N-METHYL-N-NITROSOUREA, 684-93-5, Dose [Inhibitor]: 327 MG/KG DIET DAILY STARTING 1 WK AFTER LAST CARCINOGEN TREATMENT AND CONTINUING FOR 6 MO (STUDY DURATION: 9 MO), Species: HAMSTER, Strain/Sex: SYRIAN/MALE, Target Tissue: Type of Lesion: TRACHEA: BENIGN EPITHELIAL NEOPLASM, Dose [Carcinogen]: 0.5% IN 1 ML PHOSPHATE-BUFFERED SALINE 1/WK FOR 12 WK) 6/63 (10%), 12/63 (19%), -90%, not significant; (Carcinogen: N-METHYL-N-NITROSOUREA, 684-93-5, Dose [Inhibitor]: 327 MG/KG DIET DAILY STARTING 1 WK AFTER LAST CARCINOGEN TREATMENT AND CONTINUING FOR 6 MO (STUDY DURATION: 9 MO), Species: HAMSTER, Strain/Sex: SYRIAN/MALE, Target Tissue: Type of Lesion: TRACHEA: CARCINOMA, Dose [Carcinogen]: 0.5% IN 1 ML PHOSPHATE-BUFFERED SALINE 1/WK FOR 12 WK) 4/63 (6%), 12/63 (19%), -217%, p<0.05; (Carcinogen: N-METHYL-N-NITROSOUREA, 684-93-5, Dose [Inhibitor]: 327 MG/KG DIET DAILY STARTING 1 WK AFTER LAST CARCINOGEN TREATMENT AND CONTINUING FOR 6 MO (STUDY DURATION: 9 MO), Species: HAMSTER, Strain/Sex: SYRIAN/MALE, Target Tissue: Type of Lesion: TRACHEA: EPITHELIAL NEOPLASM, Dose [Carcinogen]: 0.5% IN 1 ML PHOSPHATE-BUFFERED SALINE 1/WK FOR 12 WK) 10/63 (16%), 24/63 (38%), -138%, p<0.01; (Carcinogen: N-METHYL-N-NITROSOUREA, 684-93-5, Dose [Inhibitor]: 327 MG/KG IN DIET DAILY FOR 6 MO STARTING 1 WK AFTER FINAL CARCINOGEN DOSE (STUDY DURATION: 9 MO), Species: HAMSTER, Strain/Sex: SYRIAN/MALE, Target Tissue: Type of Lesion: TRACHEA: BENIGN EPITHELIAL NEOPLASM, Dose [Carcinogen]: 0.5% SOLUTION FOR 5 SECOND EXPOSURE 1/WK FOR 12 WK) 6/63 (10%), 12/63 (19%), -90%, not significant; (Carcinogen: N-METHYL-N-NITROSOUREA, 684-93-5, Dose [Inhibitor]: 327 MG/KG IN DIET DAILY FOR 6 MO STARTING 1 WK AFTER FINAL CARCINOGEN DOSE (STUDY DURATION: 9 MO), Species: HAMSTER, Strain/Sex: SYRIAN/MALE, Target Tissue: Type of Lesion: TRACHEA: CARCINOMA, Dose [Carcinogen]: 0.5% SOLUTION FOR 5 SECOND EXPOSURE 1/WK FOR 12 WK) 4/63 (6%), 12/63 (19%), -216%, p<0.05. The “tumour outcome (control, treated, inhibition, significance)” value is, setting by setting: (Carcinogen: N-METHYL-N-NITROSOUREA, 684-93-5, Dose [Inhibitor]: 327 MG/KG IN DIET DAILY FOR 6 MO STARTING 1 WK AFTER FINAL CARCINOGEN DOSE (STUDY DURATION: 9 MO), Species: HAMSTER, Strain/Sex: SYRIAN/MALE, Target Tissue: Type of Lesion: TRACHEA: EPITHELIAL NEOPLASM, Dose [Carcinogen]: 0.5% SOLUTION FOR 5 SECOND EXPOSURE 1/WK FOR 12 WK) 10/63 (16%), 24/63 (38%), -138%, p<0.01; (Carcinogen: N-METHYL-N-NITROSOUREA, 684-93-5, Dose [Inhibitor]: 654 MG/KG DIET DAILY FOR 24 WK STARTING 5 D AFTER LAST DOSE OF CARCINOGEN (STUDY DURATION: 32 WK), Species: RAT, Strain/Sex: F344/MALE, Target Tissue: Type of Lesion: COLON: SARCOMA, Dose [Carcinogen]: 0.5 MG 2/WK FOR 8 WK) 5/40 (13%), 1/40 (3%), 77%, not calculated; (Carcinogen: N-METHYL-N-NITROSOUREA, 684-93-5, Dose [Inhibitor]: 654 MG/KG DIET DAILY FOR 24 WK STARTING 5 D AFTER LAST DOSE OF CARCINOGEN (STUDY DURATION: 32 WK), Species: RAT, Strain/Sex: F344/MALE, Target Tissue: Type of Lesion: COLON: TUMOR, Dose [Carcinogen]: 0.5 MG 2/WK FOR 8 WK) 60%, 65%, -8%, not significant; (Carcinogen: N-METHYL-N-NITROSOUREA, 684-93-5, Dose [Inhibitor]: 654 MG/KG DIET DAILY FOR 38 WK STARTING 5 D AFTER LAST DOSE OF CARCINOGEN (STUDY DURATION: 44 WK), Species: RAT, Strain/Sex: F344/MALE, Target Tissue: Type of Lesion: COLON: TUMOR, Dose [Carcinogen]: 0.5 MG 2/WK FOR 6 WK) 62%, 62%, 0%, not significant; (Carcinogen: N-METHYL-N-NITROSOUREA, 684-93-5, Dose [Inhibitor]: 654 MG/KG DIET DAILY FOR 48 WK STARTING 5 D AFTER LAST DOSE OF CARCINOGEN (STUDY DURATION: 52 WK), Species: RAT, Strain/Sex: F344/MALE, Target Tissue: Type of Lesion: COLON: TUMOR, Dose [Carcinogen]: 0.5 MG 2/WK FOR 4 WK) 31%, 30%, 3%, not significant; (Carcinogen: N-NITROBIS(2-OXOPROPYL)AMINE, 60559-38-4, Dose [Inhibitor]: 0.5 OR 1.0 MMOL/KG DIET DAILY STARTING 1 WK AFTER CARCINOGEN TREATMENT AND CONTINUING THROUGH THE END OF THE STUDY (STUD, Species: HAMSTER, Strain/Sex: SYRIAN/FEMALE, Target Tissue: Type of Lesion: LIVER: BENIGN TUMOR, Dose [Carcinogen]: 40 MG/KG BW ONCE) 4/20 (20%), 17/37 (46%), -130%, not significant. The “tumour outcome (control, treated, inhibition, significance)” value is on record as 17/20 (85%), 32/37 (86%), 1%, not significant (Carcinogen: N-NITROBIS(2-OXOPROPYL)AMINE, 60559-38-4, Dose [Inhibitor]: 0.5 OR 1.0 MMOL/KG DIET DAILY STARTING 1 WK AFTER CARCINOGEN TREATMENT AND CONTINUING THROUGH THE END OF THE STUDY (STUD, Species: HAMSTER, Strain/Sex: SYRIAN/FEMALE, Target Tissue: Type of Lesion: ND: TOTAL TUMOR, Dose [Carcinogen]: 40 MG/KG BW ONCE); 5/23 (23%), 13/25 (52%), -126%, not significant (Carcinogen: N-NITROBIS(2-OXOPROPYL)AMINE, 60559-38-4, Dose [Inhibitor]: 0.5 OR 1.0 MMOL/KG DIET DAILY STARTING 1 WK AFTER CARCINOGEN TREATMENT AND CONTINUING THROUGH THE END OF THE STUDY (STUD, Species: HAMSTER, Strain/Sex: SYRIAN/FEMALE, Target Tissue: Type of Lesion: PANCREAS: DUCTULAR ADENOMA, Dose [Carcinogen]: 10 MG/KG BW ONCE); 12/20 (60%), 27/37 (73%), -22%, not significant (Carcinogen: N-NITROBIS(2-OXOPROPYL)AMINE, 60559-38-4, Dose [Inhibitor]: 0.5 OR 1.0 MMOL/KG DIET DAILY STARTING 1 WK AFTER CARCINOGEN TREATMENT AND CONTINUING THROUGH THE END OF THE STUDY (STUD, Species: HAMSTER, Strain/Sex: SYRIAN/FEMALE, Target Tissue: Type of Lesion: PANCREAS: DUCTULAR ADENOMA, Dose [Carcinogen]: 40 MG/KG BW ONCE); 6/23 (27%), 6/25 (24%), 11%, not significant (Carcinogen: N-NITROBIS(2-OXOPROPYL)AMINE, 60559-38-4, Dose [Inhibitor]: 0.5 OR 1.0 MMOL/KG DIET DAILY STARTING 1 WK AFTER CARCINOGEN TREATMENT AND CONTINUING THROUGH THE END OF THE STUDY (STUD, Species: HAMSTER, Strain/Sex: SYRIAN/FEMALE, Target Tissue: Type of Lesion: PANCREAS: DUCTULAR CARCINOMA, Dose [Carcinogen]: 10 MG/KG BW ONCE); 5/24 (21%), 25/41 (62%), -195%, p<0.05 (Carcinogen: N-NITROBIS(2-OXOPROPYL)AMINE, 60559-38-4, Dose [Inhibitor]: 0.5 OR 1.0 MMOL/KG DIET DAILY STARTING 1 WK AFTER CARCINOGEN TREATMENT AND CONTINUING THROUGH THE END OF THE STUDY (STUD, Species: HAMSTER, Strain/Sex: SYRIAN/MALE, Target Tissue: Type of Lesion: LIVER: BENIGN TUMOR, Dose [Carcinogen]: 40 MG/KG BW ONCE); 12/22 (54%), 24/31 (77%), -43%, not significant (Carcinogen: N-NITROBIS(2-OXOPROPYL)AMINE, 60559-38-4, Dose [Inhibitor]: 0.5 OR 1.0 MMOL/KG DIET DAILY STARTING 1 WK AFTER CARCINOGEN TREATMENT AND CONTINUING THROUGH THE END OF THE STUDY (STUD, Species: HAMSTER, Strain/Sex: SYRIAN/MALE, Target Tissue: Type of Lesion: ND: TOTAL TUMOR, Dose [Carcinogen]: 10 MG/KG BW ONCE).
